# According to US10322112B2, “Compound combinations for attenuation of bacterial virulence” (priority 2016, dated 2019):
# Key:
# QscR = QscR (Pseudomonas aeruginosa, UniProt G3XD77); details: compounds at 100 mm; E. coli reporter strain JLD271/pJN105Q/pSC11-Q; 100 mm OdDHL = 100%; error ±10%
# Excerpt: Construction of pSC11-Q: A 348 bp fragment spanning the upstream region of PA1897 (¢304 to +43 relative to the PA1897 translationalstart codon) was amplified from plasmid pJL101*by using primers 5′-GAATAT GGATCC TCTCTC CGCAGA TACCTG-3′ (BamHI site underlined) SEQ ID NO:5 and 5′-GCTATT GAATTC TGAAGA TGAATA GCGCCAC-3′ (EcoRI site underlined) SEQ ID NO:6. The PCR-generated fragment was digested with EcoRI and BamHI and subsequently ligated into EcoRI/BamHI-digested pPROBE-KT to generate pPROBE-KQ2. […] CGCC-3′ (BamHI site underlined) SEQ ID NO:8. The PCR-generated fragment was digested with SalI and BamHI and subsequently ligated into SalI/BamHI-digested pSC11 to generate pSC11-Q.
# E. coli reporter gene assays: Primary assays for RhlR, LasR, and QscR activity in E. coli JLD271 reporter (beta-galactosidase) strains were performed as reported by Welsh et al. 2015, with the following modifications:
# For all primary and dose-response antagonism assays, the concentration of native ligand utilized was approximately equal to its EC50 value in each bacterial reporter strain. For RhlR, LasR, and QscR primary antagonism assays, synthetic ligand (100 mm) was screened against BHL (10 mm), OdDHL (2 nm), and OdDHL (15 nm), respectively. For RhlR, LasR, and QscR primary agonism assays, synthetic compound (100 mm) was screened alongside and compared to the natural ligand (900 mm BHL or 100 mm OdDHL) for the receptor. As part of the beta-galactosidase assay protocol, plates to which CPRG substrate had been added were incubated at either 25° C. (LasR assay) or 30° C. (RhlR and QscR assays) until positive control wells developed a deep red color (10 min for LasR, 30 min for RhlR, and 60 min for QscR). Dose-response reporter gene assays were performed according to these protocols by using varying concentrations of compound.
# P. aeruginosa (PAO1) = test: Pyocyanin assay; type: cell-based, Pseudomonas aeruginosa; details: MOPS Glutamate and Glucose media, complete or iron/phosphate depleted, 17 h, 100 μM (compounds 1, 2, 3), 25 μM (compound 4), relative to DMSO
# Description: A. Pyocyanin Assay Protocol. The amount of pyocyanin in P. aeruginosa culture supernatants was measured following a reported protocol (O'Loughlin et al., 2013) with modifications. A 10 mL overnight culture of P. aeruginosa PAO1 was grown for 16 h. DMSO stock solutions of test compounds (20 mM) were prepared, and 10 μL or 5 μL aliquots were added to sterile 15 mL borosilicate glass test tubes. An inoculating culture was prepared by diluting the overnight culture 1:100 into freshly prepared assay medium (see above), and 2 mL aliquots of this subculture were added to each test tube (0.5% DMSO, final). The cultures were grown for 17 h, and the final cell density measured by reading OD600. Relative pyocyanin levels were measured by first pelleting 1.5 mL of well-mixed culture at 4,000 g for 10 min, transferring 200 μL of the resulting supernatant to a clear, plastic 96-well microtiter plate, and reading absorbance at 695 nm. Media background absorbance (measured from a “no bacteria” control) was subtracted, the resulting values growth normalized by dividing by the final OD600378, and the data plotted relative to a DMSO-treated positive control. B. Rhamnolipid Assay Protocol. Rhamnolipid was quantified following a reported protocol (Koch et al., 1991) with modifications. Assay cultures were prepared and grown in an identical manner to the pyocyanin assay above. Aliquots of the final culture supernatant (1 mL) were transferred to 1 dram glass vials and extracted twice with 1 mL diethyl ether. The pooled organic fractions were evaporated to dryness, and the resulting residue reconstituted in 200 μL de-ionized water. In a 1.7 mL plastic centrifuge tube, 50 μL of this extract was diluted into 450 μL of a solution of 0.19% (w/v) orcinol in 50% (v/v) concentrated H2SO4 (or 20 μL extract into 480 μL orcinol solution for cultures grown in MOPS Glucose medium). The tubes were vortexed thoroughly to mix and incubated in an 80° C. heating block for 30 min. After briefly cooling to room temperature, 200 μL of the resulting yellow to yellow-orange solution was transferred to a clear 96-well microtiter plate, and the absorbance at 421 nm measured. Media background absorbance (measured from a “no bacteria” control) was subtracted, the resulting values growth normalized by dividing by the final OD600, and the data plotted relative to a DMSO-treated positive control. C. Elastase B Assay Protocol. The amount of elastase B in P. aeruginosa culture supernatants was measured following a reported protocol (Geske et al., 2007) with modifications. Assay cultures were prepared and grown in an identical manner to the pyocyanin assay above. Aliquots of the final culture supernatant (50 μL) were added to the wells of a clear, plastic 96-well plate. To each well, 150 μL of 0.5% (w/v) elastin-congo red conjugate (Elastin Products Co.) in Tris buffer (10 mM Tris-HCl, 1 mM CaCl2, pH 7.2) was added. The plate was sealed with a polypropylene storage mat (Costar 3080) and incubated in a 37° C. shaking incubator (200 rpm) attached to a Labquake rotator for 12 h (for experiments in SCFM2) or 24 h (for experiments in MOPS medium). To quantify elastase B activity, the undigested elastin was pelleted by centrifugation of the assay plate at 1,500 g for 10 min, after which 100 μL of the supernatant was transferred to a new, clear 96-well plate, and the absorbance at 490 nm measured. Media background absorbance (measured from a “no bacteria” control) was subtracted, the resulting values growth normalized by dividing by the final OD600, and the data plotted relative to a DMSO-treated positive control.
# QscR, sequence (G3XD77 entry or part of it): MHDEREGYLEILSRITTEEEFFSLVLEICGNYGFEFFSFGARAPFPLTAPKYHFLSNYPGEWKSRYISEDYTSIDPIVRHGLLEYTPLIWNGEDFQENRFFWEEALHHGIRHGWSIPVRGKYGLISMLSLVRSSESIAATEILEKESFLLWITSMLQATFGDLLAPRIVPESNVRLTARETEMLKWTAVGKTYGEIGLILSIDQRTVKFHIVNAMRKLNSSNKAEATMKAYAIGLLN
smiles,measurement,setting,value
O=C(N[C@H]1CCOC1=O)C1CCCC1 [compound 3],Activation [%] QscR,QscR,4%
same,"pyocyanin production, single compound screens",P. aeruginosa (PAO1),blocked pyocyanin production under nearly all of the environmental conditions tested
